# Experimental data taken from doi:10.1101/2024.08.19.608619, “Discovery of potent SARS-CoV-2 nsp3 macrodomain inhibitors uncovers lack of translation to cellular antiviral response” (bioRxiv, 2024).
# Read-outs that look alike come from different tables or passages of the source.
# Experiments:
# Test in all cases: biochemical
# Parameters in all cases: In vitro kinase panel profiling, per cent remaining kinase activity at 10 uM
# AMPKα1(h) = molecular target: T1, AMPKα1(h) (Homo sapiens, UniProt Q13131); details: atp_concentration=45, read-out: % of control remaining
# T1 construct: gene PRKAA1
# From the text: (§1) We derisk potential for off-target activity by profiling the compound in a CEREP panel, a standard secondary pharmacology assessment, as well as a kinase panel to derisk a potential hinge-binding motif in our leads, and a PARP panel to derisk activity against human […]. Reassuringly, the compounds are selective, with the only off-targets being moderate human CHRM2 and KOR receptors activity associated with ASAP-0011198.
# Fyn(h) = Fyn(h) (Homo sapiens, UniProt P06241); details: atp_concentration=70, read-out: % of control remaining
# From the text: as §1
# PRAK(h) = molecular target: T2, PRAK(h) (Homo sapiens, UniProt Q8IW41); details: atp_concentration=15, read-out: % of control remaining
# T2 construct: gene MAPKAPK5
# T2 sequence (Q8IW41 1-473): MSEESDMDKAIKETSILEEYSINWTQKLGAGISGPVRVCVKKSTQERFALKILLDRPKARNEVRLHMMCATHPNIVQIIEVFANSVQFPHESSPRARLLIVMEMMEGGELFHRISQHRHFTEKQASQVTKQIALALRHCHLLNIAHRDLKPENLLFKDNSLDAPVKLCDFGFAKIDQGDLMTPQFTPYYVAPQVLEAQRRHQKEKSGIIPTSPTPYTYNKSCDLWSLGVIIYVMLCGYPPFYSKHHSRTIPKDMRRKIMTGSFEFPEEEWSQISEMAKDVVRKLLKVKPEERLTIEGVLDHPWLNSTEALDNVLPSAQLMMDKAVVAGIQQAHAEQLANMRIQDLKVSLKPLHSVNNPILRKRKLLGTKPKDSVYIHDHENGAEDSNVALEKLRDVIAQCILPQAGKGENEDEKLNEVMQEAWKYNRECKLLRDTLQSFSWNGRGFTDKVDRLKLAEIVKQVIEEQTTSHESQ
# From the text: as §1
# PAK2(h) = PAK2(h) (Homo sapiens, UniProt Q13177); details: atp_concentration=90, read-out: % of control remaining
# From the text: as §1
# EphA5(h) = EphA5(h) (Homo sapiens, UniProt P54756); details: atp_concentration=10, read-out: % of control remaining
# From the text: as §1
# MST1(h) = molecular target: T3, MST1(h) (Homo sapiens, UniProt Q13043); details: atp_concentration=90, read-out: % of control remaining
# T3 construct: gene STK4
# T3 sequence (Q13043 1-487): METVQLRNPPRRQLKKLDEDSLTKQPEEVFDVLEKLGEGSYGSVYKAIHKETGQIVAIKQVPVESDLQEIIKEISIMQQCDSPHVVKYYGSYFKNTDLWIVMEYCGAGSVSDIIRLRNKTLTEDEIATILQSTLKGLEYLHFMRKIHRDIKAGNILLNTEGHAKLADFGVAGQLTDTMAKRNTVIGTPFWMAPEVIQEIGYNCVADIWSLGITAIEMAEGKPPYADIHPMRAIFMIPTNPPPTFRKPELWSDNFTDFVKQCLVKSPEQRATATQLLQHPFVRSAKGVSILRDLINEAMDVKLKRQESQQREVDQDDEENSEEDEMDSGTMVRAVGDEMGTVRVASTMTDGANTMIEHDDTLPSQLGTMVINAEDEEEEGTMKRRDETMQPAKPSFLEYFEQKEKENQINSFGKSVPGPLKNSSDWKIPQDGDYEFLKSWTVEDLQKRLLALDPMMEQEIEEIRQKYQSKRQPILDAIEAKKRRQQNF
# From the text: as §1
# Mnk2(h) = molecular target: T4, Mnk2(h) (Homo sapiens, UniProt Q9HBH9); details: atp_concentration=120, read-out: % of control remaining
# T4 construct: gene MKNK2
# From the text: as §1
# Aurora-A(h) = molecular target: T5, Aurora-A(h) (Homo sapiens, UniProt O14965); details: atp_concentration=15, read-out: % of control remaining
# T5 construct: gene AURKA
# T5 sequence (O14965 1-403): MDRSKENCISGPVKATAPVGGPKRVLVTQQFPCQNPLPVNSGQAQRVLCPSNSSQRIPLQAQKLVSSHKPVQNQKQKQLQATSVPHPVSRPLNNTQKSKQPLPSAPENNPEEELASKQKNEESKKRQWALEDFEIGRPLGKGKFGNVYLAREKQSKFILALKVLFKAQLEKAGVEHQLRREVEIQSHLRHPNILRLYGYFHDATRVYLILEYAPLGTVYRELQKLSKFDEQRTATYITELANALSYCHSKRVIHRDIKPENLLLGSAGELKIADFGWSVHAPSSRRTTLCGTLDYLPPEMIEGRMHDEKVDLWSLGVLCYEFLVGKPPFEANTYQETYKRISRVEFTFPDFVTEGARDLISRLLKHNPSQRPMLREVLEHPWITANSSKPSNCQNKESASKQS
# From the text: as §1
# JAK2(h) = JAK2(h) (Homo sapiens, UniProt O60674); details: atp_concentration=45, read-out: % of control remaining
# From the text: as §1
# Rsk1(h) = molecular target: T6, Rsk1(h) (Homo sapiens, UniProt Q15418); details: atp_concentration=45, read-out: % of control remaining
# T6 construct: gene RPS6KA1
# From the text: as §1
# CDK7/cyclinH/MAT1(h) = CDK7/cyclinH/MAT1(h) (Homo sapiens, UniProt P50613); details: atp_concentration=90, read-out: % of control remaining
# From the text: as §1
# KDR(h) = KDR(h) (Homo sapiens, UniProt P35968); details: atp_concentration=90, read-out: % of control remaining
# From the text: as §1
# Sequence of PAK2(h) (Q13177 whole entry): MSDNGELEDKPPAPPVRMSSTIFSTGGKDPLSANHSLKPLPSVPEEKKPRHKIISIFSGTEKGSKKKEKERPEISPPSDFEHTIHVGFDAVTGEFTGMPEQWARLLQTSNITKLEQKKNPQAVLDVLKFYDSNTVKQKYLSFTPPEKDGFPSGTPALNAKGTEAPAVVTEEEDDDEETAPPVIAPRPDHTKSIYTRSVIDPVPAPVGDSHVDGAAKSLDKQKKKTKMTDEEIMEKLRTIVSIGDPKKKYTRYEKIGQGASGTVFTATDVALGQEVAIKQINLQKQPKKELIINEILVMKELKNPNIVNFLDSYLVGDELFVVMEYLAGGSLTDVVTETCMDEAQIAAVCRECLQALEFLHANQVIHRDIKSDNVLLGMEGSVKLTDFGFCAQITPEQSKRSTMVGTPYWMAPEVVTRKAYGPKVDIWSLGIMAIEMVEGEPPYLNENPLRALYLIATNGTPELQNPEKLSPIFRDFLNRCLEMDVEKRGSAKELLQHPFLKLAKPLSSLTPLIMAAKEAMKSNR
# Sequence of CDK7/cyclinH/MAT1(h) (P50613 whole entry): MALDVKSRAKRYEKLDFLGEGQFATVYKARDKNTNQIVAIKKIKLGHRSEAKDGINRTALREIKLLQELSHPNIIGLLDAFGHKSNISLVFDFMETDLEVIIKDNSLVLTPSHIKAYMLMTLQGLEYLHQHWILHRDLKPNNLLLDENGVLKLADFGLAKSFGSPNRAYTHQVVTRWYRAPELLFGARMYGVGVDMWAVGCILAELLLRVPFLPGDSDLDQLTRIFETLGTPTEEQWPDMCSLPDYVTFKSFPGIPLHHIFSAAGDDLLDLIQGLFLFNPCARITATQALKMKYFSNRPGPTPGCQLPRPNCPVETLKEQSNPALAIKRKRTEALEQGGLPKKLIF
# Sequence of CDK7/cyclinH/MAT1(h) (P51946 whole entry partner): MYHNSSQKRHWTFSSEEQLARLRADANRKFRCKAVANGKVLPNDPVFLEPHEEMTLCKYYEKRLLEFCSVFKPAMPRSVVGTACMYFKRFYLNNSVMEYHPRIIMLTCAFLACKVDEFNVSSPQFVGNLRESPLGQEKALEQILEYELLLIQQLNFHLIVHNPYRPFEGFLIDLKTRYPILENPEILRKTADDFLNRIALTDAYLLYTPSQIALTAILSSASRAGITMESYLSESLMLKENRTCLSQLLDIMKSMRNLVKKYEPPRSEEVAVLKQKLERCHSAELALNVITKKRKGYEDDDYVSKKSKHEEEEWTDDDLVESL
# Sequence of CDK7/cyclinH/MAT1(h) (P51948 whole entry partner): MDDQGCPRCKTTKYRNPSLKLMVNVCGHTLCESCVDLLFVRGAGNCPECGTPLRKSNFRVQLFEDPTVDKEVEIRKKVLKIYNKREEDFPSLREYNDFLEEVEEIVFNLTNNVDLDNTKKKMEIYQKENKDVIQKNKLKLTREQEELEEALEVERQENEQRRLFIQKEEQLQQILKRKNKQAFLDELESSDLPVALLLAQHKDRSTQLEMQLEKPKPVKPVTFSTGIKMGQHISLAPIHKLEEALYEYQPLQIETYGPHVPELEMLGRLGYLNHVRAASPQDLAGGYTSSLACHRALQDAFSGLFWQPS
# Sequence of JAK2(h) (O60674 whole entry): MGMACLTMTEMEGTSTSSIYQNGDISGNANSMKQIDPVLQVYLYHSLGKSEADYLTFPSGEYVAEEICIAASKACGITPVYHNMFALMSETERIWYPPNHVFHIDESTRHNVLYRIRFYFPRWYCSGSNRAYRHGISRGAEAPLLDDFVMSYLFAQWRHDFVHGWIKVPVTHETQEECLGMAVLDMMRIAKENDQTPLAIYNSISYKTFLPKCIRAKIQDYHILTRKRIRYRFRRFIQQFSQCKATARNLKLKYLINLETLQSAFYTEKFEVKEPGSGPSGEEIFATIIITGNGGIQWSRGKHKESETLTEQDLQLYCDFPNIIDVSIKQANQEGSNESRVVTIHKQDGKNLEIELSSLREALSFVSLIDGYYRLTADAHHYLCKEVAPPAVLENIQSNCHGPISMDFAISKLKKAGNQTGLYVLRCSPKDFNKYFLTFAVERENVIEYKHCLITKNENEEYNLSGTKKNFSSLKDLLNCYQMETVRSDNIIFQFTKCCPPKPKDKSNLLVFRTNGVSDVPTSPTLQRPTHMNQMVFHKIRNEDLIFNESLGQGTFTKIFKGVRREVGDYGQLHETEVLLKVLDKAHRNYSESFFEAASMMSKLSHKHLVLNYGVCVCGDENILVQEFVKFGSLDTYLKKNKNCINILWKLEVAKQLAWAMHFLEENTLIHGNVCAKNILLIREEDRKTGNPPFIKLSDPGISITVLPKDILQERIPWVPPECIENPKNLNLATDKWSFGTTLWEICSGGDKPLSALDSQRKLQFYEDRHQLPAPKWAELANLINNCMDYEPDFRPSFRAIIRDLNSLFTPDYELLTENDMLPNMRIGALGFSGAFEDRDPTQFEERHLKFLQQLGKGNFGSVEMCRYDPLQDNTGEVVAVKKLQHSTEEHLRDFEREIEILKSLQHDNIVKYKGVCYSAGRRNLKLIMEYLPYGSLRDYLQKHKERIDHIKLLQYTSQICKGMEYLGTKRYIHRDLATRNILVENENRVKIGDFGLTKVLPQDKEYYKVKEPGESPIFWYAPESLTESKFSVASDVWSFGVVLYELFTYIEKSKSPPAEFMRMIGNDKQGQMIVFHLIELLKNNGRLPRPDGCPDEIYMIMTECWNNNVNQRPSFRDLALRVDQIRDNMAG
# T1 sequence (Q13131 whole entry): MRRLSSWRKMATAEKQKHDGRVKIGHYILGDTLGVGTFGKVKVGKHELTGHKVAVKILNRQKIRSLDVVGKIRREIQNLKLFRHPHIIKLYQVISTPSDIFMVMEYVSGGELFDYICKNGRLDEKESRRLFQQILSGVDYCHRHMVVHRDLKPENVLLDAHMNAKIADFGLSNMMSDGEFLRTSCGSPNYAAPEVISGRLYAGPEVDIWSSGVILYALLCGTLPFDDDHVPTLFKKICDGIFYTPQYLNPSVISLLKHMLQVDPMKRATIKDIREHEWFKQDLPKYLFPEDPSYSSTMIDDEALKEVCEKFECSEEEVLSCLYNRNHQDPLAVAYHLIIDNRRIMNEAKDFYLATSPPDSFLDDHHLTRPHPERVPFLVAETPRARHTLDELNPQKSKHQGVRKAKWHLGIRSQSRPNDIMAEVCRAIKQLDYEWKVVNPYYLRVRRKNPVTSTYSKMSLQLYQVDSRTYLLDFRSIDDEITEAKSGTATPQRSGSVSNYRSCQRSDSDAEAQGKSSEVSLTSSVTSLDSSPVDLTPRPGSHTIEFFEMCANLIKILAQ
# T1 sequence (P54619 whole entry partner): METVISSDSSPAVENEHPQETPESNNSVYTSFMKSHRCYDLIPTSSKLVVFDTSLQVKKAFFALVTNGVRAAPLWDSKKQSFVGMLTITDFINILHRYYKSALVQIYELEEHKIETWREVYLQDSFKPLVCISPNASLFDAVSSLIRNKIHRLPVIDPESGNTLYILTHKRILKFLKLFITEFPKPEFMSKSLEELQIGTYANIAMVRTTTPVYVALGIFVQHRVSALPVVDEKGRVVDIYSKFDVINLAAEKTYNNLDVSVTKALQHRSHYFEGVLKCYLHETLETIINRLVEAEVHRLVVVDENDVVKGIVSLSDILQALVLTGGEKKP
# T1 sequence (Q9Y478 whole entry partner): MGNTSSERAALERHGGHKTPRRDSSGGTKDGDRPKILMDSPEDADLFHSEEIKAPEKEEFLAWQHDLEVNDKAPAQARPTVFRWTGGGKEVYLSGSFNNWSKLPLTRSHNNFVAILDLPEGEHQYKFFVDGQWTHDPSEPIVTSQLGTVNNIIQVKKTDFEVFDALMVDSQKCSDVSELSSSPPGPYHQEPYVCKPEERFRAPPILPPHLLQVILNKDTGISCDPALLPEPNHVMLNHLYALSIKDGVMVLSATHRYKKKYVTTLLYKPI
# Sequence of Fyn(h) (P06241 whole entry): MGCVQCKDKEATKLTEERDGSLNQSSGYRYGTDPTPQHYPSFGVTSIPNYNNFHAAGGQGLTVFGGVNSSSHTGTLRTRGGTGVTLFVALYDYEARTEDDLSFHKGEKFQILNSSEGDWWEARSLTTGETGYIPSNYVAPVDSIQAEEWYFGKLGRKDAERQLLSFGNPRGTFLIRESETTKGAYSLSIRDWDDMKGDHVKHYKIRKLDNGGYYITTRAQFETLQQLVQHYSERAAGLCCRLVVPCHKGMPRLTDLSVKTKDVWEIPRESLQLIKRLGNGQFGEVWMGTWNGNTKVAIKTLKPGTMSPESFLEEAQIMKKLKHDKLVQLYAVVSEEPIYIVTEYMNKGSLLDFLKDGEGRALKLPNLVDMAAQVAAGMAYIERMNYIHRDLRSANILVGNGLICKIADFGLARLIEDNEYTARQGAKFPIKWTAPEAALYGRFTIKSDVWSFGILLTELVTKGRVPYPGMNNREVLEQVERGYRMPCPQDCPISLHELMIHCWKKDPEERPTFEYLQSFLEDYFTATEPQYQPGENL
# T4 sequence (Q9HBH9 whole entry): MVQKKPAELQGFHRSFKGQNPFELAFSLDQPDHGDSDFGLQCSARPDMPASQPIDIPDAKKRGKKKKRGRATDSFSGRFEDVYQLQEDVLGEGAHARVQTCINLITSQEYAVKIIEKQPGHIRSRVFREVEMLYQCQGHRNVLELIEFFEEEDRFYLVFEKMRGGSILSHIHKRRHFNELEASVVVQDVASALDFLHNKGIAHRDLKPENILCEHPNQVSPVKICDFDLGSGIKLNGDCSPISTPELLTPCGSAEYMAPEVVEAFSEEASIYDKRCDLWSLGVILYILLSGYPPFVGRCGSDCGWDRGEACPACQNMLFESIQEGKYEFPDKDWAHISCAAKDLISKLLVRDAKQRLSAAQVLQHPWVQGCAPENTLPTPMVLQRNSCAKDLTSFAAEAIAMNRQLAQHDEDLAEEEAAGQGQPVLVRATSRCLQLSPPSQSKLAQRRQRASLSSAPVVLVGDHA
smiles,measurement,setting,value
CC(C)C(Nc1ncnc2[nH]ccc12)c1ccc2c(c1)S(=O)(=O)CCC2 (stereo not drawn) [ASAP-0008327],remaining activity at 10 µM,AMPKα1(h); batch_name=ASAP-0008327-001,94%
same,remaining activity at 10 µM,Fyn(h); batch_name=ASAP-0008327-001,127%
same,remaining activity at 10 µM,PRAK(h); batch_name=ASAP-0008327-001,107%
same,remaining activity at 10 µM,PAK2(h); batch_name=ASAP-0008327-001,110%
same,remaining activity at 10 µM,EphA5(h); batch_name=ASAP-0008327-001,110%
same,remaining activity at 10 µM,MST1(h); batch_name=ASAP-0008327-001,88%
same,remaining activity at 10 µM,Mnk2(h); batch_name=ASAP-0008327-001,89%
same,remaining activity at 10 µM,Aurora-A(h); batch_name=ASAP-0008327-001,57%
same,remaining activity at 10 µM,JAK2(h); batch_name=ASAP-0008327-001,110%
same,remaining activity at 10 µM,Rsk1(h); batch_name=ASAP-0008327-001,92%
same,remaining activity at 10 µM,CDK7/cyclinH/MAT1(h); batch_name=ASAP-0008327-001,85%
same,remaining activity at 10 µM,KDR(h); batch_name=ASAP-0008327-001,82%
COc1ccc([C@@H](Cc2nnn[nH]2)NC(=O)c2ncnc3[nH]ccc23)cc1 [ASAP-0008340],remaining activity at 10 µM,AMPKα1(h); batch_name=ASAP-0008340-001,101%
same,remaining activity at 10 µM,Fyn(h); batch_name=ASAP-0008340-001,105%
same,remaining activity at 10 µM,PRAK(h); batch_name=ASAP-0008340-001,95%
same,remaining activity at 10 µM,PAK2(h); batch_name=ASAP-0008340-001,102%
same,remaining activity at 10 µM,EphA5(h); batch_name=ASAP-0008340-001,106%
same,remaining activity at 10 µM,MST1(h); batch_name=ASAP-0008340-001,98%
same,remaining activity at 10 µM,Mnk2(h); batch_name=ASAP-0008340-001,84%
same,remaining activity at 10 µM,Aurora-A(h); batch_name=ASAP-0008340-001,71%
same,remaining activity at 10 µM,JAK2(h); batch_name=ASAP-0008340-001,102%
same,remaining activity at 10 µM,Rsk1(h); batch_name=ASAP-0008340-001,98%
same,remaining activity at 10 µM,CDK7/cyclinH/MAT1(h); batch_name=ASAP-0008340-001,91%
same,remaining activity at 10 µM,KDR(h); batch_name=ASAP-0008340-001,79%
CC(C)[C@@H](Nc1ncnc2[nH]c(-c3cnn(C)c3C#N)cc12)c1ccc2c(n1)OCCO2 [ASAP-0008418],remaining activity at 10 µM,AMPKα1(h); batch_name=ASAP-0008418-001,116%
same,remaining activity at 10 µM,Fyn(h); batch_name=ASAP-0008418-001,56%
same,remaining activity at 10 µM,PRAK(h); batch_name=ASAP-0008418-001,95%
same,remaining activity at 10 µM,PAK2(h); batch_name=ASAP-0008418-001,95%
same,remaining activity at 10 µM,EphA5(h); batch_name=ASAP-0008418-001,91%
same,remaining activity at 10 µM,MST1(h); batch_name=ASAP-0008418-001,103%
same,remaining activity at 10 µM,Mnk2(h); batch_name=ASAP-0008418-001,77%
same,remaining activity at 10 µM,Aurora-A(h); batch_name=ASAP-0008418-001,44%
same,remaining activity at 10 µM,JAK2(h); batch_name=ASAP-0008418-001,101%
same,remaining activity at 10 µM,Rsk1(h); batch_name=ASAP-0008418-001,145%
same,remaining activity at 10 µM,CDK7/cyclinH/MAT1(h); batch_name=ASAP-0008418-001,101%
same,remaining activity at 10 µM,KDR(h); batch_name=ASAP-0008418-001,80%
CC(C)[C@@H](Nc1ncnc2[nH]c(-c3cnn(C)c3C#N)cc12)c1ccc2c(n1)OCCO2 [ASAP-0010716],remaining activity at 10 µM,AMPKα1(h); batch_name=ASAP-0010716-002,99%
same,remaining activity at 10 µM,Fyn(h); batch_name=ASAP-0010716-002,55%
same,remaining activity at 10 µM,PRAK(h); batch_name=ASAP-0010716-002,89%
same,remaining activity at 10 µM,PAK2(h); batch_name=ASAP-0010716-002,99%
same,remaining activity at 10 µM,EphA5(h); batch_name=ASAP-0010716-002,90%
same,remaining activity at 10 µM,MST1(h); batch_name=ASAP-0010716-002,121%
same,remaining activity at 10 µM,Mnk2(h); batch_name=ASAP-0010716-002,83%
same,remaining activity at 10 µM,Aurora-A(h); batch_name=ASAP-0010716-002,58%
same,remaining activity at 10 µM,JAK2(h); batch_name=ASAP-0010716-002,123%
same,remaining activity at 10 µM,Rsk1(h); batch_name=ASAP-0010716-002,102%
same,remaining activity at 10 µM,CDK7/cyclinH/MAT1(h); batch_name=ASAP-0010716-002,102%
same,remaining activity at 10 µM,KDR(h); batch_name=ASAP-0010716-002,86%
Cc1nn(C)cc1-c1cc2c(NC(c3ccc4c(c3)S(=O)(=O)CCC4)C(C)C)ncnc2[nH]1 (stereo not drawn) [ASAP-0011446],remaining activity at 10 µM,AMPKα1(h); batch_name=ASAP-0011446-002,102%
same,remaining activity at 10 µM,Fyn(h); batch_name=ASAP-0011446-002,32%
same,remaining activity at 10 µM,PRAK(h); batch_name=ASAP-0011446-002,82%
same,remaining activity at 10 µM,PAK2(h); batch_name=ASAP-0011446-002,100%
same,remaining activity at 10 µM,EphA5(h); batch_name=ASAP-0011446-002,74%
same,remaining activity at 10 µM,MST1(h); batch_name=ASAP-0011446-002,115%
same,remaining activity at 10 µM,Mnk2(h); batch_name=ASAP-0011446-002,99%
same,remaining activity at 10 µM,Aurora-A(h); batch_name=ASAP-0011446-002,55%
same,remaining activity at 10 µM,JAK2(h); batch_name=ASAP-0011446-002,111%
same,remaining activity at 10 µM,Rsk1(h); batch_name=ASAP-0011446-002,110%
same,remaining activity at 10 µM,CDK7/cyclinH/MAT1(h); batch_name=ASAP-0011446-002,93%
same,remaining activity at 10 µM,KDR(h); batch_name=ASAP-0011446-002,88%
COc1ccc([C@H](Cc2nnn[nH]2)NC(=O)c2ncnc3[nH]ccc23)cc1 [ASAP-0015381],remaining activity at 10 µM,AMPKα1(h); batch_name=ASAP-0015381-001,97%
same,remaining activity at 10 µM,Fyn(h); batch_name=ASAP-0015381-001,102%
same,remaining activity at 10 µM,PRAK(h); batch_name=ASAP-0015381-001,109%
same,remaining activity at 10 µM,PAK2(h); batch_name=ASAP-0015381-001,107%
same,remaining activity at 10 µM,EphA5(h); batch_name=ASAP-0015381-001,102%
same,remaining activity at 10 µM,MST1(h); batch_name=ASAP-0015381-001,127%
same,remaining activity at 10 µM,Mnk2(h); batch_name=ASAP-0015381-001,115%
same,remaining activity at 10 µM,Aurora-A(h); batch_name=ASAP-0015381-001,84%
same,remaining activity at 10 µM,JAK2(h); batch_name=ASAP-0015381-001,116%
same,remaining activity at 10 µM,Rsk1(h); batch_name=ASAP-0015381-001,102%
same,remaining activity at 10 µM,CDK7/cyclinH/MAT1(h); batch_name=ASAP-0015381-001,107%
same,remaining activity at 10 µM,KDR(h); batch_name=ASAP-0015381-001,97%
